{"source": "patent US7022738B2", "about": "“α-ketoamide derivative and use thereof” (Senju Pharmaceutical Co., Ltd., priority 2002, dated 2006)", "key": {"[1]": {"assay": "Permeability test with Caco-2 cells", "assay_type": "in vitro ADME", "conditions": "human, Caco-2 monolayer, apical to basolateral, 30 and 60 minutes, read-out: apparent permeation coefficient (Papp)", "description": "Permeability Test with Caco-2 Cells\n0.5×10^6/cm^2 of Caco-2 cells (ATCC Catalog No. HTB-37, Manassas, Va., USA) were seeded into Transwell (polycarbonate filter: pore diameter 0.4 μm; culture area 0.33 cm^2; available from Costar Co.), and incubated in Dulbecco's modified Eagle's minimum essential medium (DMEM; available from Fisher Scientific International Inc.) for 21 to 30 days under the conditions of 37° C., 5% CO2 and 95% relative humidity, whereby a monolayer cell was prepared. The confluence of such a monolayer cell was evaluated by measuring trans epithelial electronic resistance (TEER). […] Based on the quantification results, apparent permeation coefficient (Papp) was calculated according to the formula: Papp=(δQ/δt)×(1/60AC0). • Papp: apparent permeation coefficient (cm/sec) • δQ/δt: permeation velocity (pmol/min) • A: area of monolayer cell=0.33 cm^2 • C0: initial concentration at apical membrane side (pmol/mL)"}}, "data": [{"compound": "CCCCNC(=O)C(=O)[C@H](CC(C)C)NC(=O)[C@@H](NS(=O)(=O)c1ccc(F)cc1)C(C)C", "note": "[Compound 1, (3S)-N-Butyl-3-((2S)-2-(((4-fluorophenyl)sulfonyl)amino)-3-methylbutanoylamino)-5-methyl-2-oxohexanamide]", "values": [{"measurement": "melting point", "result": "107.6 to 109.9", "unit": "°C"}, {"measurement": "Papp A→B at 60 min, 10 μM", "setting": "[1]", "result": 17, "unit": "×10⁻⁶ cm/s"}]}]}
